Publication PMC10282093, “Structural basis of α1A-adrenergic receptor activation and recognition by an extracellular nanobody” (Nature Communications, 2023)
Values joined by “and” are separate entries in the source; they are usually repeats but may differ in a detail not shown here. Identical values can stand only once.

How the values were obtained:
α1ARs over α2ARs = details: cited from earlier work
α1AAR [1] = molecular target: T1, α1AAR (Homo sapiens, UniProt P35348); assay: Glo-sensor cAMP signaling assay with engineered Gsq protein in HEK293T cells; details: HEK-293T
T1 sequence (P35348 1-466): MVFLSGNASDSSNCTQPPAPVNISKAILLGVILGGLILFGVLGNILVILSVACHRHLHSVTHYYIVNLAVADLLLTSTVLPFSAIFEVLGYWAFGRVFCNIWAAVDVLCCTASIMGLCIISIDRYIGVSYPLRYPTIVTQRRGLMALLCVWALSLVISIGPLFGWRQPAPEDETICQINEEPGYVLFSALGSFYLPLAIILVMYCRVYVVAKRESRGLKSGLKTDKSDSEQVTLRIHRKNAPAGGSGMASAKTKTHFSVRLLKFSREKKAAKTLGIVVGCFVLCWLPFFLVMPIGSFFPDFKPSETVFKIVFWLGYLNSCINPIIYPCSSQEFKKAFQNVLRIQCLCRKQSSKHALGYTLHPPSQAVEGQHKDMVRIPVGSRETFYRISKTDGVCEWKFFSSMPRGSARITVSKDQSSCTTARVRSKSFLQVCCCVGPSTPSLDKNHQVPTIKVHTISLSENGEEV
Protocol: In brief, pGloSensor™−22F plasmid, receptor plasmid, and Gsq plasmid were transfected into HEK293T cells. At 24 h after transfection, the cells were switched into a CO2-Independent Medium (Gibco) and incubated with GloSensor^TM cAMP reagent. The mixture was then transferred to a 96-well white plate. The 96-well plate is placed at 37 °C in the dark for 1 h, then placed at room temperature in the dark for 1 h before use. […] The result curves were calculated and fitted by GraphPad Prism 9.

HEK293T cells (mock) = assay: Glo-sensor cAMP assay, mock (negative control); type: cell-based
Protocol: In brief, […] plasmid, receptor plasmid, and Gsq plasmid were transfected into HEK293T cells. At 24 h after transfection, the cells were switched into a CO2-Independent Medium (Gibco) and incubated with GloSensor^TM cAMP reagent. The mixture was then transferred to a 96-well white plate. The 96-well plate is placed at 37 °C in the dark for 1 h, then placed at room temperature in the dark for 1 h before use. […] The result curves were calculated and fitted by GraphPad Prism 9.

α1AAR [2] = molecular target: T2, α1AAR (Homo sapiens, UniProt P35348); assay: [3H]prazosin radioligand binding, Sf9 membranes
T2 sequence (P35348 1-370): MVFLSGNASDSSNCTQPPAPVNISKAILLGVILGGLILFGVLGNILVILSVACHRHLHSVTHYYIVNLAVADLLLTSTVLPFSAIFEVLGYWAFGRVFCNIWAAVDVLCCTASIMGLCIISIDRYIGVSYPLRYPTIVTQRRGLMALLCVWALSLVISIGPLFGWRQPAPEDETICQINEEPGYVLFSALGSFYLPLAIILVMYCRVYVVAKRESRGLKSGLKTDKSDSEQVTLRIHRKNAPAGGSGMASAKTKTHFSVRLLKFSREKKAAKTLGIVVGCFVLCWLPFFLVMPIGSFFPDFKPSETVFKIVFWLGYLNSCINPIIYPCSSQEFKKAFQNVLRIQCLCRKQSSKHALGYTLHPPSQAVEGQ
Protocol: (§1) After centrifugation, the pellet was homogenized in binding buffer and used as the membrane fraction in binding assays. […] Receptors were incubated for 1 h at room temperature with various concentrations of ligand in a total volume of 100 µl. After the reaction, the mixture was trapped on Whatman GF/B glass filters. Bound and free radioligands were separated by washing with ice-cold binding buffer. Radioactivity was measured on a MicroBeta2 liquid scintillation counter (PerkinElmer).

α1DAR = molecular target: T3, α1DAR (Homo sapiens, UniProt P25100); assay: [3H]prazosin radioligand competition binding, Sf9 membranes; details: 1 h
T3 construct: made in house; host or cells: Sf9 insect cells (membranes)
T3 sequence (P25100 1-572): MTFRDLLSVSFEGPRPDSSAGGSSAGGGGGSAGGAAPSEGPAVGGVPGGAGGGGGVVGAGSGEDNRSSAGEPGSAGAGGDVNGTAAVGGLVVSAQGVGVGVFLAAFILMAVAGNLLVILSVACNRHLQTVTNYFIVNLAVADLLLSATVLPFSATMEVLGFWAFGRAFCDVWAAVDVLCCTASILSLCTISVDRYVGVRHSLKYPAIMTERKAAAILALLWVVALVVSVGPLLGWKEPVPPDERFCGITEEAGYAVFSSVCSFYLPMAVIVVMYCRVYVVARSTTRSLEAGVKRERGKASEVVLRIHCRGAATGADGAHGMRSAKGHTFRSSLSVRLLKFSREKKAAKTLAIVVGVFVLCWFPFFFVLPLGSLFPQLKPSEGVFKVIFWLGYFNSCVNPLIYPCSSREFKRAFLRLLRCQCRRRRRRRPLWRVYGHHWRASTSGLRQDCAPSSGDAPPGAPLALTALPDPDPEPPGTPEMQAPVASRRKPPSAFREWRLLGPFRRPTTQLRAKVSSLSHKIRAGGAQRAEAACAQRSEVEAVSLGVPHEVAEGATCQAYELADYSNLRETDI
Protocol: as §1

[3] = molecular target: T4, purified α1AAR fused at the C-terminus to an enhanced green fluorescent protein (Homo sapiens, UniProt P35348, N7Q | N13Q | N22Q); assay: flow cytometry on cells; on-yeast titration as a1, in the presence of 500 μM noradrenaline; details: one partner purified
T4 construct: α1A-adrenergic receptor, human; Used in the on-yeast titration with or without 500 μM ligand (oxymetazoline, noradrenaline, tamsulosin, phentolamine); not shown: EGFP, C-terminal, kept

[4] = molecular target: T4, purified α1AAR fused at the C-terminus …; assay: flow cytometry on cells; on-yeast titration as a1, in the presence of 500 μM oxymetazoline; details: one partner purified

Molecule: (+)-cyclazosin
- selectivity for α1ARs over α2ARs (α1ARs over α2ARs): 100–1000 fold
- subtype preference among α1ARs (α1ARs over α2ARs): slight preference for α1BAR over α1AAR

Molecule: Cc1cc(C(C)(C)C)c(O)c(C)c1CC1=NCCN1 [Oxymetazoline, oxymetazoline]
- activation at 100 µM (α1AAR [1]; read-out: α1AAR activation (Noradrenaline %), Oxy Log[M] -4): 79.5%
- activation at 10 µM (α1AAR [1]; read-out: α1AAR activation (Noradrenaline %), Oxy Log[M] -5): 82.8%
- activation at 1 µM (α1AAR [1]; read-out: α1AAR activation (Noradrenaline %), Oxy Log[M] -6): 89.5%
- activation at 0.1 µM (α1AAR [1]; read-out: α1AAR activation (Noradrenaline %), Oxy Log[M] -7): 76.5%
- activation at 0.01 µM (α1AAR [1]; read-out: α1AAR activation (Noradrenaline %), Oxy Log[M] -8): 64.3%
- activation at 0.001 µM (α1AAR [1]; read-out: α1AAR activation (Noradrenaline %), Oxy Log[M] -9): 30.7%
- cAMP Glo-sensor signal (Noradrenaline %) (HEK293T cells (mock); Oxy Log[M] -4, listed as Oxy): 20.5576% and 21.072% and 20.3482%
- cAMP Glo-sensor signal (Noradrenaline %) (HEK293T cells (mock); Oxy Log[M] -5, listed as Oxy): 16.9742% and 18.9752% and 17.0682%
- cAMP Glo-sensor signal (Noradrenaline %) (HEK293T cells (mock); Oxy Log[M] -6, listed as Oxy): 11.7764% and 12.3973% and 9.944%
- cAMP Glo-sensor signal (Noradrenaline %) (HEK293T cells (mock); Oxy Log[M] -7, listed as Oxy): 5.984% and 4.961% and 5.326%
- cAMP Glo-sensor signal (Noradrenaline %) (HEK293T cells (mock); Oxy Log[M] -8, listed as Oxy): 5.537% and 5.0478% and 4.209%
- cAMP Glo-sensor signal (Noradrenaline %) (HEK293T cells (mock); Oxy Log[M] -9, listed as Oxy): 5.27% and 4.932% and 5.142%
- cAMP Glo-sensor signal (Noradrenaline %) (HEK293T cells (mock); Oxy Log[M] -10, listed as Oxy): 5.3547% and 4.562% and 4.147%
- cAMP Glo-sensor signal (Noradrenaline %) (HEK293T cells (mock); Oxy Log[M] -11, listed as Oxy): 5.371% and 4.924% and 4.109%
- [3H]prazosin binding (α1AAR [2]; Fig 1c, oxymetazoline Log[M] -4): 10.9281% and 8.737% and 2.765%
- [3H]prazosin binding (α1AAR [2]; Fig 1c, oxymetazoline Log[M] -5): 28.5329% and 15.8053% and 21.6214%
- [3H]prazosin binding (α1AAR [2]; Fig 1c, oxymetazoline Log[M] -6): 48.3547% and 40.7911% and 47.5462%
- [3H]prazosin binding (α1AAR [2]; Fig 1c, oxymetazoline Log[M] -7): 71.541% and 85.4423% and 88.1547%
- [3H]prazosin binding (α1AAR [2]; Fig 1c, oxymetazoline Log[M] -8): 80.5129% and 95.3793% and 78.3743%
- [3H]prazosin binding (α1AAR [2]; Fig 1c, oxymetazoline Log[M] -9): 85.0772% and 90.4238% and 92.4582%
- [3H]prazosin binding (α1AAR [2]; Fig 1c, oxymetazoline Log[M] -10): 89.85% and 99.1089% and 88.2591%
- [3H]prazosin binding (α1AAR [2]; SupFig 3a, oxymetazoline Log[M] -4): 12.1047% and 12.5905% and 4.0484%
- [3H]prazosin binding (α1AAR [2]; SupFig 3a, oxymetazoline Log[M] -5): 17.0033% and 16.477% and 26.9623%
- [3H]prazosin binding (α1AAR [2]; SupFig 3a, oxymetazoline Log[M] -6): 53.0745% and 43.3179% and 35.5045%
- [3H]prazosin binding (α1AAR [2]; SupFig 3a, oxymetazoline Log[M] -7): 77.4054% and 89.6316% and 82.5874%
- [3H]prazosin binding (α1AAR [2]; SupFig 3a, oxymetazoline Log[M] -8): 97.364% and 96.109% and 85.3403%
- [3H]prazosin binding (α1AAR [2]; SupFig 3a, oxymetazoline Log[M] -9): 100.805% and 102.506% and 100.765%
- [3H]prazosin binding (α1AAR [2]; SupFig 3a, oxymetazoline Log[M] -10): 92.5464% and 102.06% and 94.2468%
- [3H]prazosin binding (α1AAR [2]; SupFig 3a, oxymetazoline Log[M] -11): 99.0644% and 106.675% and 101.331%
- [3H]prazosin binding (α1AAR [2]; SupFig 5b, Oxy Log[M] -4, listed as Oxy): 3.711% and 5.398% and 5.024%
- [3H]prazosin binding (α1AAR [2]; SupFig 5b, Oxy Log[M] -5, listed as Oxy): 10.3036% and 9.182% and 6.784%
- [3H]prazosin binding (α1AAR [2]; SupFig 5b, Oxy Log[M] -6, listed as Oxy): 25.9506% and 41.5063% and 33.8379%
- [3H]prazosin binding (α1AAR [2]; SupFig 5b, Oxy Log[M] -7, listed as Oxy): 92.3589% and 77.9429% and 95.5776%
- [3H]prazosin binding (α1AAR [2]; SupFig 5b, Oxy Log[M] -8, listed as Oxy): 101.851% and 78.107% and 77.5873%
- [3H]prazosin binding (α1AAR [2]; SupFig 5b, Oxy Log[M] -9, listed as Oxy): 102.225% and 74.633% and 114.735%
- [3H]prazosin binding (α1AAR [2]; SupFig 5b, Oxy Log[M] -10, listed as Oxy): 96.3983% and 104.267% and 110.313%
- [3H]prazosin binding (α1AAR [2]; SupFig 5b, Oxy Log[M] -11, listed as Oxy): 110.176% and 107.431% and 115.738%
- [3H]prazosin binding (α1AAR [2]; oxymetazoline Log[M] -4, + 5 μM Nb29): 2.395% and 8.488% and 7.551%
- [3H]prazosin binding (α1AAR [2]; oxymetazoline Log[M] -5, + 5 μM Nb29): 13.6695% and 16.4815% and 14.4506%
- [3H]prazosin binding (α1AAR [2]; oxymetazoline Log[M] -6, + 5 μM Nb29): 33.0932% and 34.9679% and 29.0314%
- [3H]prazosin binding (α1AAR [2]; oxymetazoline Log[M] -7, + 5 μM Nb29): 67.0717% and 63.0359% and 61.005%
- [3H]prazosin binding (α1AAR [2]; oxymetazoline Log[M] -8, + 5 μM Nb29): 88.2659% and 86.6777% and 81.6265%
- [3H]prazosin binding (α1AAR [2]; oxymetazoline Log[M] -9, + 5 μM Nb29): 85.0373% and 101.154% and 98.9412%
- [3H]prazosin binding (α1AAR [2]; oxymetazoline Log[M] -10, + 5 μM Nb29): 98.863% and 104.175% and 100.087%
- remaining binding at 100 µM (α1DAR; oxymetazoline Log[M] -4): 40%
- remaining binding at 10 µM (α1DAR; oxymetazoline Log[M] -5): 78%
- remaining binding at 1 µM (α1DAR; oxymetazoline Log[M] -6): 104%
- remaining binding at 0.01 µM (α1DAR; oxymetazoline Log[M] -8): 101%
- remaining binding at 0.001 µM (α1DAR; oxymetazoline Log[M] -9): 85.5%
- remaining binding at 0.0001 µM (α1DAR; oxymetazoline Log[M] -10): 96.6%

B1: Nb29 displayed on yeast cells (VHH)
VHH: QVQLQESGGGLVQAGGSLRLSCAASGNISAHWKMGWYRQAPGKEREFVAGIGYANTNYADSVKGRFTISRDNAKNTVYLQMNSLKPEDTAVYYCAAYSYYRDHSYWGQGTQVTVSS
notes: Expression was detected with an anti-HA antibody; also called Nb29-expressing yeast cells
- Kd [3]: 38.8 nM
- Kd [4]: 37.6 nM
